± gives the expanded uncertainty stated by the source.
Assay: xn = mol fraction of the nth substance listed
Details: Vibrating tube method

S [hydrogen sulfide] + CCC
Details	mass density [kg/m3]
333.22 K, 2048 kPa, Gas, x1 = 0.2227	40 ± 0.1
333.22 K, 2176 kPa, Gas, x1 = 0.2227	43.6 ± 0.1
333.22 K, 2300 kPa, Gas, x1 = 0.2227	47.2 ± 0.1
333.22 K, 2398 kPa, Gas, x1 = 0.2227	50.2 ± 0.1
333.22 K, 2551 kPa, Gas, x1 = 0.2227	55.6 ± 0.1
333.22 K, 2630 kPa, Gas, x1 = 0.2227	59.1 ± 0.1
333.22 K, 2722 kPa, Gas, x1 = 0.2227	62.4 ± 0.1
333.22 K, 2778 kPa, Gas, x1 = 0.2227	65.4 ± 0.1
333.22 K, 3571 kPa, Liquid, x1 = 0.2227	438.6 ± 0.3
333.22 K, 3861 kPa, Liquid, x1 = 0.2227	441.9 ± 0.4
333.22 K, 4197 kPa, Liquid, x1 = 0.2227	445.2 ± 0.4
333.22 K, 4915 kPa, Liquid, x1 = 0.2227	450.2 ± 0.4
333.22 K, 5323 kPa, Liquid, x1 = 0.2227	453.4 ± 0.4
333.22 K, 5731 kPa, Liquid, x1 = 0.2227	456.4 ± 0.4
333.22 K, 6177 kPa, Liquid, x1 = 0.2227	459.5 ± 0.4
333.22 K, 6686 kPa, Liquid, x1 = 0.2227	462.8 ± 0.4
333.22 K, 7239 kPa, Liquid, x1 = 0.2227	466.1 ± 0.4
333.22 K, 7781 kPa, Liquid, x1 = 0.2227	469.2 ± 0.5
333.22 K, 8351 kPa, Liquid, x1 = 0.2227	472.3 ± 0.5
333.22 K, 8992 kPa, Liquid, x1 = 0.2227	475.5 ± 0.5
333.22 K, 9907 kPa, Liquid, x1 = 0.2227	479.8 ± 0.5
333.22 K, 10643 kPa, Liquid, x1 = 0.2227	482.8 ± 0.5
333.22 K, 11360 kPa, Liquid, x1 = 0.2227	485.8 ± 0.6
333.22 K, 12135 kPa, Liquid, x1 = 0.2227	488.8 ± 0.6
333.22 K, 12959 kPa, Liquid, x1 = 0.2227	491.9 ± 0.6
333.22 K, 13811 kPa, Liquid, x1 = 0.2227	495 ± 0.6
333.22 K, 14817 kPa, Liquid, x1 = 0.2227	498.4 ± 0.7
333.22 K, 15868 kPa, Liquid, x1 = 0.2227	501.8 ± 0.7
333.22 K, 16856 kPa, Liquid, x1 = 0.2227	504.8 ± 0.7
333.22 K, 17893 kPa, Liquid, x1 = 0.2227	507.8 ± 0.7
333.22 K, 18975 kPa, Liquid, x1 = 0.2227	510.8 ± 0.8
333.22 K, 20100 kPa, Liquid, x1 = 0.2227	513.8 ± 0.8
333.22 K, 21435 kPa, Liquid, x1 = 0.2227	517.2 ± 0.8
333.22 K, 22830 kPa, Liquid, x1 = 0.2227	520.5 ± 0.8
333.22 K, 24120 kPa, Liquid, x1 = 0.2227	523.5 ± 0.9
333.22 K, 25466 kPa, Liquid, x1 = 0.2227	526.5 ± 0.9
333.22 K, 26959 kPa, Liquid, x1 = 0.2227	529.7 ± 0.9
333.22 K, 28465 kPa, Liquid, x1 = 0.2227	532.7 ± 0.9
333.22 K, 30160 kPa, Liquid, x1 = 0.2227	536 ± 1
333.22 K, 31961 kPa, Liquid, x1 = 0.2227	539.4 ± 1
333.22 K, 33791 kPa, Liquid, x1 = 0.2227	542.6 ± 1
333.22 K, 35752 kPa, Liquid, x1 = 0.2227	546 ± 1.1
333.22 K, 37781 kPa, Liquid, x1 = 0.2227	549.3 ± 1.1
333.22 K, 39778 kPa, Liquid, x1 = 0.2227	552.5 ± 1.2
363.24 K, 9 kPa, Fluid (supercritical or subcritical phases), x1 = 0.2691	0.1
363.24 K, 313 kPa, Fluid (supercritical or subcritical phases), x1 = 0.2691	4.4 ± 0.1
363.24 K, 596 kPa, Fluid (supercritical or subcritical phases), x1 = 0.2691	8.6 ± 0.1
363.24 K, 842 kPa, Fluid (supercritical or subcritical phases), x1 = 0.2691	12.3 ± 0.1
363.24 K, 1110 kPa, Fluid (supercritical or subcritical phases), x1 = 0.2691	16.6 ± 0.1
363.24 K, 1358 kPa, Fluid (supercritical or subcritical phases), x1 = 0.2691	20.8 ± 0.1
363.24 K, 1602 kPa, Fluid (supercritical or subcritical phases), x1 = 0.2691	25 ± 0.1
363.24 K, 1810 kPa, Fluid (supercritical or subcritical phases), x1 = 0.2691	28.7 ± 0.1
363.24 K, 2014 kPa, Fluid (supercritical or subcritical phases), x1 = 0.2691	32.7 ± 0.1
363.24 K, 2204 kPa, Fluid (supercritical or subcritical phases), x1 = 0.2691	36.6 ± 0.1
363.24 K, 2401 kPa, Fluid (supercritical or subcritical phases), x1 = 0.2691	40.6 ± 0.1
363.24 K, 2576 kPa, Fluid (supercritical or subcritical phases), x1 = 0.2691	44.4 ± 0.1
363.24 K, 2742 kPa, Fluid (supercritical or subcritical phases), x1 = 0.2691	48.3 ± 0.1
363.24 K, 2905 kPa, Fluid (supercritical or subcritical phases), x1 = 0.2691	52.3 ± 0.1
363.24 K, 3058 kPa, Fluid (supercritical or subcritical phases), x1 = 0.2691	56.2 ± 0.1
363.24 K, 3211 kPa, Fluid (supercritical or subcritical phases), x1 = 0.2691	60.3 ± 0.1
363.24 K, 3358 kPa, Fluid (supercritical or subcritical phases), x1 = 0.2691	64.4 ± 0.1
363.24 K, 3493 kPa, Fluid (supercritical or subcritical phases), x1 = 0.2691	68.4 ± 0.1
363.24 K, 3613 kPa, Fluid (supercritical or subcritical phases), x1 = 0.2691	72.3 ± 0.1
363.24 K, 3752 kPa, Fluid (supercritical or subcritical phases), x1 = 0.2691	76.3 ± 0.1
363.24 K, 3878 kPa, Fluid (supercritical or subcritical phases), x1 = 0.2691	80.7 ± 0.2
363.24 K, 3964 kPa, Fluid (supercritical or subcritical phases), x1 = 0.2691	84.5 ± 0.2
363.24 K, 4056 kPa, Fluid (supercritical or subcritical phases), x1 = 0.2691	88.4 ± 0.2
363.24 K, 4156 kPa, Fluid (supercritical or subcritical phases), x1 = 0.2691	92.4 ± 0.2
363.24 K, 4237 kPa, Fluid (supercritical or subcritical phases), x1 = 0.2691	96.3 ± 0.2
363.24 K, 4354 kPa, Fluid (supercritical or subcritical phases), x1 = 0.2691	102.5 ± 0.2
363.24 K, 4468 kPa, Fluid (supercritical or subcritical phases), x1 = 0.2691	108.5 ± 0.3
363.24 K, 4619 kPa, Fluid (supercritical or subcritical phases), x1 = 0.2691	120.8 ± 0.3
363.24 K, 4747 kPa, Fluid (supercritical or subcritical phases), x1 = 0.2691	132.2 ± 0.4
363.24 K, 4838 kPa, Fluid (supercritical or subcritical phases), x1 = 0.2691	142.5 ± 1.1
363.24 K, 4877 kPa, Fluid (supercritical or subcritical phases), x1 = 0.2691	152.9 ± 1.2
363.24 K, 4905 kPa, Fluid (supercritical or subcritical phases), x1 = 0.2691	166.8 ± 1.4
363.24 K, 4932 kPa, Fluid (supercritical or subcritical phases), x1 = 0.2691	180.1 ± 1.9
363.24 K, 4954 kPa, Fluid (supercritical or subcritical phases), x1 = 0.2691	190.9 ± 1.9
363.24 K, 4982 kPa, Fluid (supercritical or subcritical phases), x1 = 0.2691	203.7 ± 1.8
363.24 K, 5002 kPa, Fluid (supercritical or subcritical phases), x1 = 0.2691	216 ± 1.8
363.24 K, 5021 kPa, Fluid (supercritical or subcritical phases), x1 = 0.2691	229.7 ± 1.7
363.24 K, 5043 kPa, Fluid (supercritical or subcritical phases), x1 = 0.2691	241.1 ± 1.7
363.24 K, 5101 kPa, Fluid (supercritical or subcritical phases), x1 = 0.2691	254 ± 1.4
363.24 K, 5146 kPa, Fluid (supercritical or subcritical phases), x1 = 0.2691	266.2 ± 1.1
363.24 K, 5182 kPa, Fluid (supercritical or subcritical phases), x1 = 0.2691	277.5 ± 1.1
363.24 K, 5220 kPa, Fluid (supercritical or subcritical phases), x1 = 0.2691	288.7 ± 1.1
363.24 K, 5267 kPa, Fluid (supercritical or subcritical phases), x1 = 0.2691	299.6 ± 1
363.24 K, 5324 kPa, Fluid (supercritical or subcritical phases), x1 = 0.2691	307.2 ± 0.8
363.24 K, 5360 kPa, Fluid (supercritical or subcritical phases), x1 = 0.2691	313.4 ± 0.6
363.24 K, 5410 kPa, Fluid (supercritical or subcritical phases), x1 = 0.2691	319.7 ± 0.6
363.24 K, 5474 kPa, Fluid (supercritical or subcritical phases), x1 = 0.2691	326 ± 0.5
363.24 K, 5549 kPa, Fluid (supercritical or subcritical phases), x1 = 0.2691	332.3 ± 0.5
363.24 K, 5632 kPa, Fluid (supercritical or subcritical phases), x1 = 0.2691	339.4 ± 0.4
363.24 K, 5762 kPa, Fluid (supercritical or subcritical phases), x1 = 0.2691	346.5 ± 0.4
363.24 K, 5914 kPa, Fluid (supercritical or subcritical phases), x1 = 0.2691	353.3 ± 0.4
363.24 K, 6056 kPa, Fluid (supercritical or subcritical phases), x1 = 0.2691	359.2 ± 0.4
363.24 K, 6228 kPa, Fluid (supercritical or subcritical phases), x1 = 0.2691	365.4 ± 0.4
363.24 K, 6441 kPa, Fluid (supercritical or subcritical phases), x1 = 0.2691	371.6 ± 0.4
363.24 K, 6679 kPa, Fluid (supercritical or subcritical phases), x1 = 0.2691	377.7 ± 0.4
363.24 K, 6961 kPa, Fluid (supercritical or subcritical phases), x1 = 0.2691	383.9 ± 0.4
363.24 K, 7276 kPa, Fluid (supercritical or subcritical phases), x1 = 0.2691	390 ± 0.4
363.24 K, 7639 kPa, Fluid (supercritical or subcritical phases), x1 = 0.2691	396.1 ± 0.4
363.24 K, 8055 kPa, Fluid (supercritical or subcritical phases), x1 = 0.2691	402.1 ± 0.4
363.24 K, 8511 kPa, Fluid (supercritical or subcritical phases), x1 = 0.2691	408 ± 0.4
363.24 K, 9002 kPa, Fluid (supercritical or subcritical phases), x1 = 0.2691	413.7 ± 0.5
363.24 K, 9557 kPa, Fluid (supercritical or subcritical phases), x1 = 0.2691	419.4 ± 0.5
363.24 K, 10183 kPa, Fluid (supercritical or subcritical phases), x1 = 0.2691	425.2 ± 0.5
363.24 K, 10878 kPa, Fluid (supercritical or subcritical phases), x1 = 0.2691	431.1 ± 0.5
363.24 K, 11648 kPa, Fluid (supercritical or subcritical phases), x1 = 0.2691	436.9 ± 0.5
363.24 K, 12515 kPa, Fluid (supercritical or subcritical phases), x1 = 0.2691	442.7 ± 0.6
363.24 K, 13444 kPa, Fluid (supercritical or subcritical phases), x1 = 0.2691	448.5 ± 0.6
363.24 K, 14452 kPa, Fluid (supercritical or subcritical phases), x1 = 0.2691	454.1 ± 0.6
363.24 K, 15616 kPa, Fluid (supercritical or subcritical phases), x1 = 0.2691	460.1 ± 0.6
363.24 K, 16807 kPa, Fluid (supercritical or subcritical phases), x1 = 0.2691	465.7 ± 0.7
363.24 K, 18163 kPa, Fluid (supercritical or subcritical phases), x1 = 0.2691	471.5 ± 0.7
363.24 K, 19596 kPa, Fluid (supercritical or subcritical phases), x1 = 0.2691	477.1 ± 0.8
363.24 K, 20717 kPa, Fluid (supercritical or subcritical phases), x1 = 0.2691	481.2 ± 0.8
363.24 K, 21739 kPa, Fluid (supercritical or subcritical phases), x1 = 0.2691	484.7 ± 0.8
363.24 K, 22936 kPa, Fluid (supercritical or subcritical phases), x1 = 0.2691	488.7 ± 0.9
363.24 K, 24149 kPa, Fluid (supercritical or subcritical phases), x1 = 0.2691	492.4 ± 0.9
363.24 K, 25434 kPa, Fluid (supercritical or subcritical phases), x1 = 0.2691	496.2 ± 0.9
363.24 K, 26773 kPa, Fluid (supercritical or subcritical phases), x1 = 0.2691	500 ± 1
363.24 K, 28220 kPa, Fluid (supercritical or subcritical phases), x1 = 0.2691	503.8 ± 1
363.24 K, 29831 kPa, Fluid (supercritical or subcritical phases), x1 = 0.2691	507.9 ± 1
363.24 K, 31352 kPa, Fluid (supercritical or subcritical phases), x1 = 0.2691	511.5 ± 1.1
363.24 K, 32889 kPa, Fluid (supercritical or subcritical phases), x1 = 0.2691	515 ± 1.1
363.24 K, 34710 kPa, Fluid (supercritical or subcritical phases), x1 = 0.2691	519 ± 1.1
